{"source": "paper PMC10229426", "about": "“An optimized bioluminescent substrate for non-invasive imaging in the brain” (Nature Chemical Biology, 2023)", "key": {"[1]": {"parameters": "method as in doi:10.1134/S1068162018020085", "conditions": "cited from earlier work"}, "[2]": {"test": "Toxicity in mice: necropsy and histopathology", "format": "in vivo, C57BL/6 mice", "parameters": "key: 0: absent; 1: present", "conditions": "individual mice", "method": "(§1) Male C57BL/6 mice of 2 months of age were killed by CO2 asphyxiation and cardiac exsanguination. All mice were weighed, and a complete gross examination of the external and internal organs was performed. […] Formalin-fixed tissues were processed routinely, embedded in paraffin, sectioned at 5 μm and stained with hematoxylin and eosin. All slides were blindly evaluated for histologic treatment-related effects (Supplementary Table 1) by a board-certified veterinary pathologist."}, "[3]": {"test": "Toxicity in mice: necropsy and histopathology", "format": "in vivo, C57BL/6 mice", "parameters": "key: 0: absent; 1: minimal; 2: mild; 3: moderate; 4: severe", "conditions": "individual mice", "method": "as §1"}, "[4]": {"test": "Toxicity in mice: necropsy and histopathology", "format": "in vivo, C57BL/6 mice", "parameters": "key: 0: absent; 1: minimal accumulation; 2: mild accumulation; 3: moderate accumulation; 4: severe accumulation", "conditions": "individual mice", "method": "as §1"}, "Antares luciferase": {"target": "T1, Antares luciferase (Oplophorus gracilirostris, UniProt Q9GV45, A31E/A60N/A81I/F95D/I117V/K70R/L54V/L99Q/M102K/N193R/P142E/Q151K/Q38R/Q45L/V71I/Y165I)", "T1 construct": "expressed in transfected cells; host or cells: transgenic mice with CAG-LSL-Antares at the H11 locus, crossed to Cre driver lines (neurons or liver)", "T1 sequence (Q9GV45 other isoform, or with tags, fused parts or gaps with the stated changes)": "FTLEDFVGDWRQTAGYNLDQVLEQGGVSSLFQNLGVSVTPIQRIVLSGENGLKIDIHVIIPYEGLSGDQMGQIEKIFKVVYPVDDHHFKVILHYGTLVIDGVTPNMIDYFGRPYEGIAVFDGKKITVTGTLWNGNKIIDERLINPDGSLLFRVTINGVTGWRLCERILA", "test": "Non-invasive detection of Antares in the liver (Alb-cre driver)", "format": "in vivo, mouse", "conditions": "1.3 µmol i.p.", "text": "Transgenic reporter mice with LSL-CAG-luciferase (Antares, FLuc or AkaLuc) inserted at the H11 locus (H11P) were generated by φC31-mediated recombination in blastocysts[48] by the Stanford Transgenic, Knockout and Tumor Model Center. For substrate comparisons, 2- to 4-month-old transgenic mice doubly hemizygous for a Camk2a-cre (Jackson Laboratory, 005359), Vgat-IRES-cre (Jackson Laboratory), Vglut2-IRES-cre (Jackson Laboratory, 016963) or Alb-cre (Jackson Laboratory, 003574) driver and a CAG-LSL-Antares, CAG-LSL-AkaLuc or CAG-LSL-FLuc reporter were anesthetized by inhalation of isoflurane for 5 min. An electric shaver was used to remove scalp hair in Camk2a-cre, Vglut2-IRES-cre or Vgat-IRES-cre mice or abdominal hair in Alb-cre mice. Nair depilatory cream (Church and Dwight) was then applied to the shaved area for 1 min, and remaining hair was removed with a piece of sterile gauze. […]\nFor mice expressing Antares, indicated amounts of Fz were dissolved in 480 µl of a PEG-300-based formulation consisting of 10% glycerol, 10% ethanol, 10% hydroxypropylcyclodextrin and 35% PEG-300 in water, or indicated amounts of lyophilized Fz analogs with P-407 vehicle were reconstituted in 150–500 µl of DPBS buffer. […] Integrated luminescence was quantified using the Fiji version of the ImageJ program (NIH)[49], with further statistical analysis performed in GraphPad Prism (version 9.0.0)."}, "Antares": {"target": "Antares (Oplophorus gracilirostris, UniProt Q9GV45, A31E/A60N/A81I/F95D/I117V/K70R/L54V/L99Q/M102K/N193R/P142E/Q151K/Q38R/Q45L/V71I/Y165I)", "sequence (Q9GV45 other isoform, or with tags, fused parts or gaps with the stated changes)": "as above", "test": "Comparison of bioluminescence in luciferase-transduced (AAV) mouse brain hippocampus", "format": "in vivo, J:NU mice", "parameters": "P2A-mNeonGreen (self-cleaving; mNeonGreen is separated and a P2A remnant stays on Antares) (C); expressed in transfected cells; host or cells: hippocampus of J:NU mice transduced with AAV.DJ", "text": "For AAV packaging, pAAV-CMV-AkaLuc-P2A-mNeonGreen-WPRE plasmid and pAAV-CMV-Antares-P2A-mNeonGreen-WPRE were amplified and purified by a PureLink Expi endotoxin-free maxi plasmid purification kit (Invitrogen) and were sent to Stanford Gene Vector and Virus Core to produce and titer AAV.DJ vectors. Under sterile conditions, 12-week-old male J:NU mice (Jackson Laboratory, 007850) were anesthetized with isoflurane and secured in a stereotaxic frame (RWD Life Science), and a hole the size of the needle was drilled through the skull. A Hamilton syringe with a 33-gauge needle was inserted at anteroposterior −2.2 mm, mediolateral +1.7 mm and dorsoventral −1.7 mm. […] The needle was left in place for 3 min after each injection to minimize upward flow of viral solution. Two to 3 weeks after AAV infection, mice were injected i.p. with the indicated amount of CFz, Akalumine or FFz and imaged on the Ami HT (binning of 1 × 1 and exposure time of 10 s)."}}, "note": "Entries after “also recorded” stand apart in the source; their conditions may differ. Read-outs that look alike come from different tables or passages of the source."}
{"smiles": "O=c1c(Cc2ccco2)nc2c(Cc3ccccc3)[nH]c(-c3ccccc3)cn1-2", "note": "[Fz, furimazine, reference compound]", "values": [{"measurement": "toxicity of daily i.v. injection", "setting": "[1]; 20 µg i.v. per day", "result": "minimal toxicity"}, {"measurement": "toxicity of daily i.v. injection", "setting": "[1]; 60 µg (0.16 µmol) i.v. daily for 7 d", "result": "caused liver and lung damage"}]}
{"smiles": "O=c1c(Cc2ccco2)nc2c(Cc3ccccc3)[nH]c(-c3cccc(F)c3F)cn1-2", "note": "[compound 6, cephalofurimazine]", "values": [{"measurement": "HT, heart telangiectasia score", "setting": "[2]; 1 day, 4.2 µmol, 20 mg P-407", "result": 1}, {"measurement": "HPMC, heart perivascular myxomatous change score", "setting": "[2]; 3 days, 4.2 µmol, 20 mg P-407", "result": 1}, {"measurement": "HT, heart telangiectasia score", "setting": "[2]; 3 days, 4.2 µmol, 20 mg P-407", "result": 1}, {"measurement": "HPMC, heart perivascular myxomatous change score", "setting": "[2]; 5 days, 1.3 µmol, 12 mg P-407", "result": 1}, {"measurement": "HT, heart telangiectasia score", "setting": "[2]; 5 days, 1.3 µmol, 12 mg P-407", "result": 1}, {"measurement": "HPMC, heart perivascular myxomatous change score", "setting": "[3]; 1 day, 4.2 µmol, 20 mg P-407", "result": 0}, {"measurement": "HT, heart telangiectasia score", "setting": "[3]; 1 day, 4.2 µmol, 20 mg P-407", "result": 0}, {"measurement": "KCHMV, Kupffer cell hyperplasia and microvesicular vacuolation score", "setting": "[3]; 1 day, 4.2 µmol, 20 mg P-407", "result": 0}, {"measurement": "HPMC, heart perivascular myxomatous change score", "setting": "[3]; 3 days, 1.3 µmol, 12 mg P-407", "result": 0}, {"measurement": "HT, heart telangiectasia score", "setting": "[3]; 3 days, 1.3 µmol, 12 mg P-407", "result": 0}, {"measurement": "KCHMV, Kupffer cell hyperplasia and microvesicular vacuolation score", "setting": "[3]; 3 days, 1.3 µmol, 12 mg P-407", "result": 0}, {"measurement": "HPMC, heart perivascular myxomatous change score", "setting": "[3]; 3 days, 4.2 µmol, 20 mg P-407", "result": 0}, {"measurement": "HPMC, heart perivascular myxomatous change score", "setting": "[3]; 5 days, 1.3 µmol, 12 mg P-407", "result": 0}, {"measurement": "HT, heart telangiectasia score", "setting": "[3]; 5 days, 1.3 µmol, 12 mg P-407", "result": 0}, {"measurement": "KCHMV, Kupffer cell hyperplasia and microvesicular vacuolation score", "setting": "[4]; 3 days, 4.2 µmol, 20 mg P-407", "result": 2}, {"measurement": "KCHMV, Kupffer cell hyperplasia and microvesicular vacuolation score", "setting": "[4]; 5 days, 1.3 µmol, 12 mg P-407", "result": 2}, {"measurement": "liver signal, 6 versus FFz", "setting": "Antares luciferase", "result": "threefold dimmer than FFz"}, {"measurement": "peak signal relative to 3.0 µmol of AkaLumine", "setting": "Antares; 1.3 µmol CFz i.p., Antares and AkaLuc AAV co-infected hippocampus", "result": "comparable peak signal"}, {"measurement": "brightness relative to 3 µmol of AkaLumine", "setting": "Antares; CFz dose 3 µmol i.p., Antares and AkaLuc AAV co-infected hippocampus, listed as CFz", "result": "threefold more signal; also recorded: about threefold higher"}, {"measurement": "brightness relative to FFz", "setting": "Antares; i.p., Antares AAV in hippocampus", "result": "brighter than FFz by at least an order of magnitude"}]}
